# Laboratory results reported in ChEMBL document CHEMBL1240489, “Discovery of N-{1-[3-(3-oxo-2,3-dihydrobenzo[1,4]oxazin-4-yl)propyl]piperidin-4-yl}-2-phenylacetamide (Lu AE51090): an allosteric muscarinic M1 receptor agonist with unprecedented selectivity and procognitive potential” (J Med Chem, 2010).
# Columns and labels:
# Mus musculus = assay: Reversal of 0 seconds delay-induced memory decay in C57Bl/6J mouse assessed as positive alteration at 0.31 to 20 mg/kg, sc for 1 week by Y-maze test; format: functional; settings: dose mg/kg 0.31-20; route subcutaneous
# [1] = molecular target: 5-hydroxytryptamine receptor 7 (Homo sapiens, UniProt P34969); assay: Binding affinity to human 5-HT7 receptor by radioligand displacement assay
# Glucocorticoid receptor = Glucocorticoid receptor (Homo sapiens, UniProt P04150); assay: Binding affinity to human glucocorticoid receptor by radioligand displacement assay
# [2] = molecular target: Muscarinic acetylcholine receptor M3 (Homo sapiens, UniProt P20309); assay: Binding affinity to human muscarinic M3 receptor by radioligand displacement assay
# [3] = molecular target: Sodium-dependent noradrenaline transporter (Homo sapiens, UniProt P23975); assay: Binding affinity to human NE transporter by radioligand displacement assay
# [4] = Drug level in C57/6J mouse brain at 20 mg/kg, sc after 30 mins; format: ADME, organism-based; design: dose 20 mg/kg, route subcutaneous; settings: read-out: Drug uptake
# [5] = molecular target: Urotensin-2 receptor (Homo sapiens) (UniProt Q9UKP6); assay: Binding affinity to human UT1 receptor by radioligand displacement assay
# Hepatocyte = assay: Intrinsic clearance in rat hepatocytes at 1 uM after up to 60 mins by LC/MS-MS analysis; format: ADME, cell-based, Liver; settings: 1 h
# [6] = molecular target: T1, Muscarinic acetylcholine receptor M1 (Homo sapiens, UniProt P11229)
# T1 sequence (P11229 whole entry): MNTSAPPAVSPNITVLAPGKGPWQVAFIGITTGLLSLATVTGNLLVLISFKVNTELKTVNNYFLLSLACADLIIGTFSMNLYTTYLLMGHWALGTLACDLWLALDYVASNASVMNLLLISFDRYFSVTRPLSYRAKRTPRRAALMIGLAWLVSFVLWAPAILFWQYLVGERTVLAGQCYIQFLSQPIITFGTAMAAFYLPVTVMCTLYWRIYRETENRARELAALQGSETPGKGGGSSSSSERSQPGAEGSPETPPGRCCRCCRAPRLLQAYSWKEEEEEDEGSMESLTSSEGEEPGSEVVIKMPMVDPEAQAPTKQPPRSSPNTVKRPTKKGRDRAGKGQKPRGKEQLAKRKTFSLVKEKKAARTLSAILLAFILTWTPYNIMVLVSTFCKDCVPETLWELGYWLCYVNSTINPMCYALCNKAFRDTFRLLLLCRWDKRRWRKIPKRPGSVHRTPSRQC
# [7] = Binding affinity to PDE4 by enzyme assay
# [8] = molecular target: Melatonin receptor type 1A (Homo sapiens, UniProt P48039); assay: Binding affinity to human MT1 receptor by radioligand displacement assay
# [9] = molecular target: Alpha-1D adrenergic receptor (Homo sapiens, UniProt P25100); assay: Binding affinity to human adrenergic Alpha-1D receptor by radioligand displacement assay
# [10] = molecular target: T2, Muscarinic acetylcholine receptor M2 (Homo sapiens, UniProt P08172); assay: Displacement of [3H]-AFDX-384 from human muscarinic M2 receptor expressed in CHO-K1 cells; format: cell-based
# T2 sequence (P08172 whole entry): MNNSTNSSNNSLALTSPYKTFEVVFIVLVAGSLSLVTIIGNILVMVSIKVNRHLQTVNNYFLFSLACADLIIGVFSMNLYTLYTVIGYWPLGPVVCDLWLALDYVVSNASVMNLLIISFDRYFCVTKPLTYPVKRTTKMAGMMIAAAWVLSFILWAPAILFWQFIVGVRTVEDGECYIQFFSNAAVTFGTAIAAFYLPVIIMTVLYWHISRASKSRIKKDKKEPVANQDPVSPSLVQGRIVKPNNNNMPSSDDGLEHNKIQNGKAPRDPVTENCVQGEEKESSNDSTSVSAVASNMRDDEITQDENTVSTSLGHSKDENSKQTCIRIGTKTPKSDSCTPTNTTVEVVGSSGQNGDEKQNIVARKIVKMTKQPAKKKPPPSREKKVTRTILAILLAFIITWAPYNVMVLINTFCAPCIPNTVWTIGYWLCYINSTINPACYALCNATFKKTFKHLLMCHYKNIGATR
# Histamine H2 receptor = Histamine H2 receptor (Homo sapiens, UniProt P25021); assay: Binding affinity to human histamine H2 receptor by radioligand displacement assay
# [11] = molecular target: Muscarinic acetylcholine receptor M1 (Homo sapiens, UniProt P11229, Y381A)
# [12] = Binding affinity to PDE5 by enzyme assay
# Chain of Glucocorticoid receptor (P04150 whole entry): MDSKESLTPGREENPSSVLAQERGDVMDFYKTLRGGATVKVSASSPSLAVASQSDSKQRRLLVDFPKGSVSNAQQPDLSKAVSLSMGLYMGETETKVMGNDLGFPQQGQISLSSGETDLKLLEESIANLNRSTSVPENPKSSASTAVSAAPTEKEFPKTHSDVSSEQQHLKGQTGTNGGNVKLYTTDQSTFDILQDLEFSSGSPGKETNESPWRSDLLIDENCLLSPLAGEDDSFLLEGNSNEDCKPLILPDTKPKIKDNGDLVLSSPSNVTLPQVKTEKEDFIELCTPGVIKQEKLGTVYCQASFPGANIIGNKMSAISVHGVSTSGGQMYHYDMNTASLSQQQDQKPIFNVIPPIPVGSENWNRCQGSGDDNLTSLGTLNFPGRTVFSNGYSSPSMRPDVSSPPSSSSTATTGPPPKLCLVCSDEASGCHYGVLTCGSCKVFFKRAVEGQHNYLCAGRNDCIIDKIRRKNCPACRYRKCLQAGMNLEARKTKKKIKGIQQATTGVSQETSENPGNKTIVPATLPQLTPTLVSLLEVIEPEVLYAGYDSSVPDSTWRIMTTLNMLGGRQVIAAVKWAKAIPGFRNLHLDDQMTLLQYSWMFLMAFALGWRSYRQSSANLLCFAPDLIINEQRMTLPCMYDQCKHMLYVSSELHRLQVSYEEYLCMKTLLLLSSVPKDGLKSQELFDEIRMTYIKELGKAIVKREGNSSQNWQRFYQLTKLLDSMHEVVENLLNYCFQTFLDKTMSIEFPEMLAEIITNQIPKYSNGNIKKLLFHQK
# Chain of Alpha-1D adrenergic receptor (P25100 whole entry): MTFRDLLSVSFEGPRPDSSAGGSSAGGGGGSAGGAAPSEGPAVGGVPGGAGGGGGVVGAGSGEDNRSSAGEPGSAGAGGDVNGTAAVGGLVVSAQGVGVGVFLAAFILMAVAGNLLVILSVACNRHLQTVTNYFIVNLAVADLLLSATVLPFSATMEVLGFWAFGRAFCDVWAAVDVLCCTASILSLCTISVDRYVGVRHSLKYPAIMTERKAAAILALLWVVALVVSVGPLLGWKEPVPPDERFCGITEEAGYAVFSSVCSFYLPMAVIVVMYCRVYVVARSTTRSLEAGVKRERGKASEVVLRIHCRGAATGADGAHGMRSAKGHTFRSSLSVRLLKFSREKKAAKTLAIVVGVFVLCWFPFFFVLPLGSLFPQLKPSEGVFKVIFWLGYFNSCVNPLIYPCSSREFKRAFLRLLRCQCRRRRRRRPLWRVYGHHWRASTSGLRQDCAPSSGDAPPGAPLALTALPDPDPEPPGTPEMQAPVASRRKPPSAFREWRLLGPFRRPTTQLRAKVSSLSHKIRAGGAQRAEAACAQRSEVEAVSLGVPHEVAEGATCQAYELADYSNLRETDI
# Chain of Muscarinic acetylcholine receptor M1 (Homo sapiens, UniProt P11229, Y381A) (P11229 whole entry Y381A): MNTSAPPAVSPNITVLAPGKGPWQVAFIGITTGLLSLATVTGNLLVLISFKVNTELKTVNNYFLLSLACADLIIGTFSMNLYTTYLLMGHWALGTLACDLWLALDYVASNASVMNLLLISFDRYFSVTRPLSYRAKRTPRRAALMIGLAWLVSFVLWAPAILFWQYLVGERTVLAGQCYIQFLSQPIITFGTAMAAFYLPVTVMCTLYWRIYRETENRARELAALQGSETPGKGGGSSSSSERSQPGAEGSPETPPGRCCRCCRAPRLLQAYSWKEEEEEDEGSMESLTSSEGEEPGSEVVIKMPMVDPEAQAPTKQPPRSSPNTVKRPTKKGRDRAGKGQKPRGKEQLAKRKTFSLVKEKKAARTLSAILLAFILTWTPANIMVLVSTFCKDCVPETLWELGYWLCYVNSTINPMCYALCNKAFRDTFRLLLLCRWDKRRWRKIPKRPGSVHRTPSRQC
# Chain of Sodium-dependent noradrenaline transporter (P23975 whole entry): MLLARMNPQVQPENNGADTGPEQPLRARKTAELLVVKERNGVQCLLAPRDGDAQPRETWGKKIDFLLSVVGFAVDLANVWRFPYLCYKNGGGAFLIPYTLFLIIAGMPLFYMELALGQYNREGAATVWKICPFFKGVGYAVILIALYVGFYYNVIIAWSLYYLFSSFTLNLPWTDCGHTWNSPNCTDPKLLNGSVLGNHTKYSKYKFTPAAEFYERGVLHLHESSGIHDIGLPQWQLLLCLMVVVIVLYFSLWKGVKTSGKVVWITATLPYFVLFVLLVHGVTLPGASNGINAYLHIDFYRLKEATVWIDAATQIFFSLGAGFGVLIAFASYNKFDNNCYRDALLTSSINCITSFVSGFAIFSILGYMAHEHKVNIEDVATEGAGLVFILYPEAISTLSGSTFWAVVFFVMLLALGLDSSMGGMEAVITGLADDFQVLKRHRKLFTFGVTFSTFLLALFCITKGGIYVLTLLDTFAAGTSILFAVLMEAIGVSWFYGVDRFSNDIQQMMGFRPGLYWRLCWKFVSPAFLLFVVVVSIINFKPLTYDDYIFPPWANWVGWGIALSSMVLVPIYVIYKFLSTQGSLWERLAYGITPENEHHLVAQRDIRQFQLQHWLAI
# Chain of 5-hydroxytryptamine receptor 7 (P34969 whole entry): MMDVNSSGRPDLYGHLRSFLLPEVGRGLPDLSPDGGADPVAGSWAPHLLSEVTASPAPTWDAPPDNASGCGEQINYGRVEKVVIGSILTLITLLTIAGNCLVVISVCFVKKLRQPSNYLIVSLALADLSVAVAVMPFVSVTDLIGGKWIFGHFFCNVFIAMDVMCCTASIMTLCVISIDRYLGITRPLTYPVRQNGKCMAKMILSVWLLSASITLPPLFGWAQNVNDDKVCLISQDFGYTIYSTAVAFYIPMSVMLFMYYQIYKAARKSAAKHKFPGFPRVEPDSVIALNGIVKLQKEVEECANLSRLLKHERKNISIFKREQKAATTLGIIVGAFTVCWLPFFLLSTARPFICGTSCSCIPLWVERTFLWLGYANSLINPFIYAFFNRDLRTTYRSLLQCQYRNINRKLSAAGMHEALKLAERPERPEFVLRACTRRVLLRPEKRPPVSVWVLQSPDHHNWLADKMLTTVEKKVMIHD
# Chain of Urotensin-2 receptor (Homo sapiens) (Q9UKP6 whole entry, looked up): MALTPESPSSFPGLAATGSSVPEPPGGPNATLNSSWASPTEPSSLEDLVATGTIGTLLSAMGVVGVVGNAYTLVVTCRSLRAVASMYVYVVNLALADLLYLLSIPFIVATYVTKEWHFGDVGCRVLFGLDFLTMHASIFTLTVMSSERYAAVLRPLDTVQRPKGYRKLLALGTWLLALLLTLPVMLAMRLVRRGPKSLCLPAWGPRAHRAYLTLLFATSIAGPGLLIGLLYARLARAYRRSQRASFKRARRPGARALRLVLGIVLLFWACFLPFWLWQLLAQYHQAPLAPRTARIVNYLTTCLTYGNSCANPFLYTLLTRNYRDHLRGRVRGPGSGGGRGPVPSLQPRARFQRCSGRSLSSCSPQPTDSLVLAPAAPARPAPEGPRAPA
# Chain of Muscarinic acetylcholine receptor M3 (P20309 whole entry): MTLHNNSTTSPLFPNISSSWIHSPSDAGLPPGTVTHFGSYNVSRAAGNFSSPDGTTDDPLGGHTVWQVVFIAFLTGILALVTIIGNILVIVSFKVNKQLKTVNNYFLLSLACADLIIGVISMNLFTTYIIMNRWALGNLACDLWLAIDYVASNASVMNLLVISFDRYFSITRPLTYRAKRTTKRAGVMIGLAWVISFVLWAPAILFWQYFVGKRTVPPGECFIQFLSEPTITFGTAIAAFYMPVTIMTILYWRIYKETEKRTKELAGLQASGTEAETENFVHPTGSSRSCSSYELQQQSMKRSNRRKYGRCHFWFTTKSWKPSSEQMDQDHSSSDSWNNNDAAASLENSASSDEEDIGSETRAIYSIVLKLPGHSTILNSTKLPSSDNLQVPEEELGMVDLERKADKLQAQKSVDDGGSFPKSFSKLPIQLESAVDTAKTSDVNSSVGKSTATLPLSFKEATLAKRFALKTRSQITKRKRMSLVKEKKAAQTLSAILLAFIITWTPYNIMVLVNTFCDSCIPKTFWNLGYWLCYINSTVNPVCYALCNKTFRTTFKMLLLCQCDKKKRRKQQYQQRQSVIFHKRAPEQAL
# Chain of Histamine H2 receptor (P25021 whole entry): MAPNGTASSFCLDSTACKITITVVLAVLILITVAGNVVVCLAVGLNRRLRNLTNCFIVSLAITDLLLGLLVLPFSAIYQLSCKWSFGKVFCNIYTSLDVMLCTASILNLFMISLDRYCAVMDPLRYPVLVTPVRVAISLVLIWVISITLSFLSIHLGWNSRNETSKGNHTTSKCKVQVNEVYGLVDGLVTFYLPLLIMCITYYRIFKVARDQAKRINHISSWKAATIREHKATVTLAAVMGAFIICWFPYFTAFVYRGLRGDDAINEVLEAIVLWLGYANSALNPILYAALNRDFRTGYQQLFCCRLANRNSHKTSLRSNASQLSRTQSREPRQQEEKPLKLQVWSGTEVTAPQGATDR
# Chain of Melatonin receptor type 1A (P48039 whole entry): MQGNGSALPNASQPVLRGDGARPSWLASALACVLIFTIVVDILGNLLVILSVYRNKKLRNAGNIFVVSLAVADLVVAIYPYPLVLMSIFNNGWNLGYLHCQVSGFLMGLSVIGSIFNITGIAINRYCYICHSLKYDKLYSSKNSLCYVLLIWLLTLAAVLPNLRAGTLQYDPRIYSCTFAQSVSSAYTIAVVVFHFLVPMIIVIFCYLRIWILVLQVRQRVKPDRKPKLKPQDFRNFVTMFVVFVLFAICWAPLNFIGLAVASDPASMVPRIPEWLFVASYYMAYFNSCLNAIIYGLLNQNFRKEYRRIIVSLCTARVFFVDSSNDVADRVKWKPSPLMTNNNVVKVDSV
compound,measurement,setting,value
O=C(Cc1ccccc1)NC1CCN(CCCN2C(=O)COc3ccccc32)CC1,Activity,Mus musculus,80%
same,Ki,[1],≥ 1 µM
same,Ki,Glucocorticoid receptor,≥ 1 µM
same,Ki,[2],≥ 1 µM
same,Ki,[3],≥ 1 µM
same,concentration at 0.5 h,[4],440 ng/g
same,Ki,[5],≥ 1 µM
same,CL,Hepatocyte,100 mL/min
same,EC50,[6],0.061 µM
same,Ki,[7],≥ 1 µM
same,Ki,[8],≥ 1 µM
same,Ki,[9],≥ 1 µM
same,Ki,[10],2.2 µM
same,Ki,Histamine H2 receptor,≥ 1 µM
same,EC50,[11],0.097 µM
same,Ki,[12],≥ 1 µM
